Measurements reported in PMC11801715, “Activating PKC-ε induces HIV expression with improved tolerability” (PLOS Pathogens, 2025).

Legend:
PKC-δ = PKC-δ (Homo sapiens, UniProt Q05655); assay: PKC isoform translocation in A549-tGFP cells; type: cell-based; design: host or cells: A549; conditions: EC50 for PKC-δ translocation
Protocol: (§1) A description of this effort is reported elsewhere.
(§2) Cellular translocation of PKC isoforms upon activation was determined in 8 A549 cell lines, each expressing a single PKC isoform fused to tGFP (PhenoVista Biosciences). Cells were plated in 384-well plates (80 μL/well) at 10^5 cells/mL in RPMI with 10% FBS and rested overnight. PKC agonist(s) were serially diluted at 1:3 steps in DMSO and added to the cells. After 60 minutes in an incubator at 37 °C, 5% CO2, cells were stained with Hoechst-33342 and fixed with 2% paraformaldehyde for 30 minutes at 4 °C. Cells were then stained with wheat germ agglutinin conjugated to AlexaFluor647 (WGA-647) for 10 minutes at 4 °C, washed to remove excess dye and imaged with Cellomics Array Scan (Thermo Fisher) at room temperature (RT). Images were analyzed using Cellomics automated image analysis algorithm. Plasma membrane translocation was quantified using the ratio between the average fluorescence in the areas at the cell edge defined by WGA-647 and the cytoplasm region.

PKC-η = PKC-η (Homo sapiens, UniProt P24723); assay: PKC isoform translocation in A549-tGFP cells; type: cell-based; design: host or cells: A549; conditions: A549-tGFP cells, 60 minutes
Sequence of PKC-η (P24723 whole entry, canonical isoform): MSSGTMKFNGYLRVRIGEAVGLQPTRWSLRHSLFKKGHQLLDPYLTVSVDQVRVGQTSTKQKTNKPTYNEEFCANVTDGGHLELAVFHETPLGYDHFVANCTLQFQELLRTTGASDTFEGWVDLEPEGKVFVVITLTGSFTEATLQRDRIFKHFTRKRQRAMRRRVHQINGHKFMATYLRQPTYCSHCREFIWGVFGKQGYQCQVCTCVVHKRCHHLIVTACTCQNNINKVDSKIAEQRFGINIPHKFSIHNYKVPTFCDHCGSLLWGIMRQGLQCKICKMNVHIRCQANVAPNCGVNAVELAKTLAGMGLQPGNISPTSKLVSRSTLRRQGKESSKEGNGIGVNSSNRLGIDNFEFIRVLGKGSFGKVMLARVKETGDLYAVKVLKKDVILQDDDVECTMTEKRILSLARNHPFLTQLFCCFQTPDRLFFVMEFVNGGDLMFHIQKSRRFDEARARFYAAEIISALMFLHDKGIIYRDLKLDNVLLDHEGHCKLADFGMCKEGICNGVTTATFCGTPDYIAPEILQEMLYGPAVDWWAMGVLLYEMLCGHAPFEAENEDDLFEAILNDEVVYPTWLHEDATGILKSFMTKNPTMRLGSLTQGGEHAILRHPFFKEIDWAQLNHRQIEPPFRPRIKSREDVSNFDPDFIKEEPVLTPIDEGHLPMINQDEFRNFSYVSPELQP
Protocol: as §1, §2

PKC-θ = PKC-θ (Homo sapiens, UniProt Q04759); assay: PKC isoform translocation in A549-tGFP cells; type: cell-based; design: host or cells: A549; conditions: A549-tGFP cells, 60 minutes
Sequence of PKC-θ (Q04759 whole entry, canonical isoform): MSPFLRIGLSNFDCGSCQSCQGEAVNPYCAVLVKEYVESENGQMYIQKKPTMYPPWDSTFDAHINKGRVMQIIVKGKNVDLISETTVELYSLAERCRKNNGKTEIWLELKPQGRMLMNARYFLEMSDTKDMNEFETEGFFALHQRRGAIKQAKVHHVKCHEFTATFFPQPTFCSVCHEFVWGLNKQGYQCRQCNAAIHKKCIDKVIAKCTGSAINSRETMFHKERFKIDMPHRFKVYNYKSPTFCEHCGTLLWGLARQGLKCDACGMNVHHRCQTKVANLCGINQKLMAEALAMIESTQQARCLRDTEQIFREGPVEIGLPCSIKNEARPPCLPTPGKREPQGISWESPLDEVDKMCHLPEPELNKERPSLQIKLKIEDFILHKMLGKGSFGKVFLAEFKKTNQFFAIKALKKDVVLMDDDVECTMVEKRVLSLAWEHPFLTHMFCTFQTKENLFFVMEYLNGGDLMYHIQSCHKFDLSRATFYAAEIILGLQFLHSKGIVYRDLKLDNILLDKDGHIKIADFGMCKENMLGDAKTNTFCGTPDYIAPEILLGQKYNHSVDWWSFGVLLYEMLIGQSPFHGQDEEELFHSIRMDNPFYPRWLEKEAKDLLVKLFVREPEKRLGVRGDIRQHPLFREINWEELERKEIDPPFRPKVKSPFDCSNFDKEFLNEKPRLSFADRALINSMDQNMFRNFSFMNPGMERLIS
Protocol: as §1, §2

PKC-α [1] = target: T1, PKC-α (Homo sapiens, UniProt P17252); assay: PKC isoform translocation in A549-tGFP cells; type: cell-based; design: host or cells: A549
Protocol: as §1, §2

PKC δ and ε over α and β = conditions: cited from earlier work
PKC-ε = target: T2, PKC-ε (Homo sapiens, UniProt Q02156); assay: PKC isoform translocation in A549-tGFP cells; type: cell-based; design: host or cells: A549; conditions: A549-tGFP cells, 60 minutes
T2 sequence (Q02156 1-737): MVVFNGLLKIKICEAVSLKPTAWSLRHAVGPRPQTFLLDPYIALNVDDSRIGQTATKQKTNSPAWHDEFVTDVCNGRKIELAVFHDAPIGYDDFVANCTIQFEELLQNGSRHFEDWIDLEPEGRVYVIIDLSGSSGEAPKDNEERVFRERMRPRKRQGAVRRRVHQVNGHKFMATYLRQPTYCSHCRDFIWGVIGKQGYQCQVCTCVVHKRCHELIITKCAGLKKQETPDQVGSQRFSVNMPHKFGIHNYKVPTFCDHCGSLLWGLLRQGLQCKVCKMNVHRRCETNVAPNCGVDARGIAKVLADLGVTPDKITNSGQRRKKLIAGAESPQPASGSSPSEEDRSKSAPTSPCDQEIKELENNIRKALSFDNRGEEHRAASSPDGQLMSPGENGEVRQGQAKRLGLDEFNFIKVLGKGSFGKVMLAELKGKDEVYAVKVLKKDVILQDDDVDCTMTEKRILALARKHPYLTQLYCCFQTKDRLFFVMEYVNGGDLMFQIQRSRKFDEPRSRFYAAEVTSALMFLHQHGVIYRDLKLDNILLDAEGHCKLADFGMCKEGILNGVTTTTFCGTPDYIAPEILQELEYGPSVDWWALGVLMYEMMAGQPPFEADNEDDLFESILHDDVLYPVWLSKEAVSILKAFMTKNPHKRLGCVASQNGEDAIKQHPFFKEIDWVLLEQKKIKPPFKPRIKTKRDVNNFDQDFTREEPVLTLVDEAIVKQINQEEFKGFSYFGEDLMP
Protocol: (§3) Using these findings we embarked on new designs for DAG-lactones with additional substituents from the ester moiety in combination with a few olefin substituents. A description of this effort is reported elsewhere.
as §2

PKC-β1 [2] = target: T3, PKC-β1 (Homo sapiens, UniProt P05771); assay: PKC isoform translocation in A549-tGFP cells; type: cell-based; design: host or cells: A549; conditions: 60 minutes
T3 sequence (P05771 whole entry, canonical isoform): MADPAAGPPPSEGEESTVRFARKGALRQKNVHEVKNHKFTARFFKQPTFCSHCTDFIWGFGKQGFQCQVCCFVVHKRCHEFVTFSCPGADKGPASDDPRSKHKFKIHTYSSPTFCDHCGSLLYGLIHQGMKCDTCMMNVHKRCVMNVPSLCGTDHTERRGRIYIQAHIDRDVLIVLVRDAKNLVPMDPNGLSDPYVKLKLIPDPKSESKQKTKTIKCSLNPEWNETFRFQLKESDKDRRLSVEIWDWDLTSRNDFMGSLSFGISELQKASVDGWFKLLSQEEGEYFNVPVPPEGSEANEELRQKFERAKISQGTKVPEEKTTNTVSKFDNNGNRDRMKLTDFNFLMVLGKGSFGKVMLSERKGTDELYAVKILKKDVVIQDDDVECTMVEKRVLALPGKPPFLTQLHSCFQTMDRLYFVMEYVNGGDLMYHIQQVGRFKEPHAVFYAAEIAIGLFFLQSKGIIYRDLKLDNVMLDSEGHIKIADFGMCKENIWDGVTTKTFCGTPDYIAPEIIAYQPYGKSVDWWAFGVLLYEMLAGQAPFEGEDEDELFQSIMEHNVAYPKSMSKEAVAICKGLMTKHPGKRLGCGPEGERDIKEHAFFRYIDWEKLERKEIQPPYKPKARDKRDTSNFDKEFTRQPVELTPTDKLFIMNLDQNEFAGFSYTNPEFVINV
Protocol: as §3, §2

PKC-β2 [3] = target: T4, PKC-β2 (Homo sapiens, UniProt P05771); assay: PKC isoform translocation in A549-tGFP cells; type: cell-based; design: host or cells: A549; conditions: 60 minutes
T4 sequence (P05771 1-673 isoform P05771-2): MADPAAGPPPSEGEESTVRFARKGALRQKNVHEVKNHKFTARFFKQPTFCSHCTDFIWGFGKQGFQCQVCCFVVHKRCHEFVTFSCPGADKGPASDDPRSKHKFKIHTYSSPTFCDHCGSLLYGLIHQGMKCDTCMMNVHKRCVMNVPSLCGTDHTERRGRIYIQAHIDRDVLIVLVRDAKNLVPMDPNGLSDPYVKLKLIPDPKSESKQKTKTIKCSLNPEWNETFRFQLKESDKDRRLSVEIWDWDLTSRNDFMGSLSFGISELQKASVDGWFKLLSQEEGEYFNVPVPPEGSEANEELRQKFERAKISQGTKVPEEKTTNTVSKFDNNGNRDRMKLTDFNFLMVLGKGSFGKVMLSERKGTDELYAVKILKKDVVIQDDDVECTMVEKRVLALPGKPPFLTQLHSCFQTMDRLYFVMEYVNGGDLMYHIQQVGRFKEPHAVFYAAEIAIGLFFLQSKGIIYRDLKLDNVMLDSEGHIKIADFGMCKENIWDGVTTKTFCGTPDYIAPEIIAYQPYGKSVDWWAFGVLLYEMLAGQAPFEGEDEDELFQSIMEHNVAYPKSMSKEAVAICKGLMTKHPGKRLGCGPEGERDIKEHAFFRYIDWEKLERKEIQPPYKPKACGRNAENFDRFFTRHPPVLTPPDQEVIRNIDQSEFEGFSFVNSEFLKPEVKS
Protocol: as §3, §2

PKC-γ = PKC-γ (Homo sapiens, UniProt P05129); assay: PKC isoform translocation in A549-tGFP cells; type: cell-based; design: host or cells: A549; conditions: 60 minutes
Protocol: as §3, §2

[4] = test system: latent HIV in total CD4+ T cells; assay: microbe, parasite or virus in culture; type: cell-based, HIV-1; conditions: Human immunodeficiency virus 1, CD4+ T, read-out: EC50, activation of HIV expression
Protocol: Peripheral blood mononuclear cells and CD4^+ T cells used for evaluating PKC agonist and inhibitor molecules were isolated from leukopaks of selected participants as described previously. Isolated CD4^+ T cells (5×10^6 cells/well) were added to 24-well tissue culture plates in 2.5 mL of RPMI medium containing 100 nM each of elvitegravir and efavirenz. Cells were stimulated with DMSO (vehicle control) or the indicated concentrations of PKC agonist molecules. Cells were pretreated with PKC isoform inhibitors (Selleck Chemicals) for 1 hour before addition of PKC agonist at indicated concentrations and maintained at 37 °C, 5% CO2 for 3 days. Cell supernatants from each well were analyzed using the Cobas […] system for quantification of HIV-1 RNA using the HIV-1 test v2.0 kit (Roche Diagnostics).

CD69 on CD4+ T cells = assay: CD4+ T-cell activation flow cytometry (CD69); type: cell-based; conditions: Homo sapiens; CD4+ T cells from ART-suppressed people with HIV; read-out: EC50, activation of CD69 expression
Protocol: Sixteen hours post treatment with PKC agonists, cellular activation of 100,000 CD4^+ T cells, taken from the above ex vivo HIV activation cultures, was assessed using flow cytometry. Cell surface expression of CD69 was measured on CD4^+ T cells using anti-human CD3 (UCHT1), CD4 (SK3) and CD69 (FN50) antibodies and standard flow staining methods. Stained cells were acquired on the Becton Dickinson (BD) LSR Fortessa II flow cytometer and results were analyzed using FlowJo software.

platelet-rich plasma = assay: Platelet aggregation assay (light transmittance aggregometry); type: cell-based, human; conditions: dilution series, 20 minutes
Protocol: Given that C-232A induced DIC in rats and monkeys, we tested whether C-232A could directly induce platelet activation and downstream aggregation. […] Adenosine diphosphate, a known platelet agonist, was used as a positive control (S7A Fig).
Aggregation of platelets was assessed using light transmittance aggregometry using standard methods.
(A) Assay principle for platelet aggregation assay.

PBMCs = assay: Cytokine induction in vitro in PBMC culture supernatants; type: cell-based, human; conditions: 24 hours
Protocol: Culture supernatants were analyzed for induction of several cytokines as shown in S3 Table, using a 10-plex MSD (Meso Scale Discovery) assay following manufacturer’s instructions. MSD Workbench 4.0 software was used for data analysis and 4-parameter logistic curve fit model was utilized to determine values of experimental samples from standard curves. Values for each cytokine (pg/mL) for a given concentration was calculated as the geometric mean of all triplicate values combined from all 5 donors.

[5] = test system: platelets (CD62P+) and CD4+ T cells (CD69+) in whole blood; assay: In vitro whole blood platelet and CD4+ T-cell activation assay; type: cell-based, human; conditions: whole blood from healthy donors; platelets to CD4+ T cells
Protocol: We developed a novel human whole blood assay to determine whether other PKC agonists also activate platelets at the same concentrations that are required to activate CD4^+ T cells. Platelet activation was assessed by CD62P (P-selectin), which traffics to the cell surface upon activation and α-granule release. CD4^+ T-cell activation was assessed by CD69 upregulation (Fig 7A).
Whole blood was drawn into sodium citrate tubes using a 21-gauge needle. To prevent potential interference from tissue thromboplastin released during venipuncture, which could affect the accuracy of coagulation testing, the first 2 mL of blood drawn was discarded. PKC agonist molecules were dispensed in a dilution series into 80 μL of blood per well in a flat-bottom 96-well plate and mixed gently. Care was taken not to introduce any mechanical stress-related activation of platelets. […] The remaining 72 μL of blood in the first plate was incubated for 1 additional hour and stained with anti-human CD3 (UCHT1), CD4 (SK3), and CD69 (FN50) (30 minutes in the dark). Red blood cell lysis and fixing was done using BD lyse/fix solution. Stained cells were acquired on BD LSR Fortessa II after washing. […] EC50 values for platelet and CD4 T-cell activation for each agonist was obtained by nonlinear regression curve fit using GraphPad Prism version 9.3.0.

PKC-β1 [6] = target: T3, PKC-β1; assay: Z'-LYTE kinase activity assay; type: biochemical; conditions: ATP at Kmapp, 2 μM peptide substrate; read-out: IC50 for classical PKC isoforms, PKC-β1
From the text: (§4) In this assay, phosphorylation of a synthetic FRET-peptide substrate protects the peptide from cleavage by the development reagent and prevents disruption of the FRET signal.

PKC-β2 [7] = target: T4, PKC-β2; assay: Z'-LYTE kinase activity assay; type: biochemical; conditions: ATP at Kmapp, 2 μM peptide substrate; read-out: IC50 for classical PKC isoforms, PKC-β2
From the text: as §4

PKC-α [8] = target: T1, PKC-α; assay: Z'-LYTE kinase activity assay; type: biochemical; conditions: ATP at Kmapp, 2 μM peptide substrate; read-out: IC50 for classical PKC isoforms, PKC-α
From the text: as §4

[9] = Free fraction in cell culture media; type: in vitro ADME
[10] = test system: classical and novel PKC isoforms; assay: Estimated PKC inhibition in cell culture from Z'-LYTE IC50 and free fraction; type: biochemical; conditions: 25 µM, 34% free in cell culture media
From the text: as §4

Sequence of PKC-δ (Q05655 whole entry, canonical isoform): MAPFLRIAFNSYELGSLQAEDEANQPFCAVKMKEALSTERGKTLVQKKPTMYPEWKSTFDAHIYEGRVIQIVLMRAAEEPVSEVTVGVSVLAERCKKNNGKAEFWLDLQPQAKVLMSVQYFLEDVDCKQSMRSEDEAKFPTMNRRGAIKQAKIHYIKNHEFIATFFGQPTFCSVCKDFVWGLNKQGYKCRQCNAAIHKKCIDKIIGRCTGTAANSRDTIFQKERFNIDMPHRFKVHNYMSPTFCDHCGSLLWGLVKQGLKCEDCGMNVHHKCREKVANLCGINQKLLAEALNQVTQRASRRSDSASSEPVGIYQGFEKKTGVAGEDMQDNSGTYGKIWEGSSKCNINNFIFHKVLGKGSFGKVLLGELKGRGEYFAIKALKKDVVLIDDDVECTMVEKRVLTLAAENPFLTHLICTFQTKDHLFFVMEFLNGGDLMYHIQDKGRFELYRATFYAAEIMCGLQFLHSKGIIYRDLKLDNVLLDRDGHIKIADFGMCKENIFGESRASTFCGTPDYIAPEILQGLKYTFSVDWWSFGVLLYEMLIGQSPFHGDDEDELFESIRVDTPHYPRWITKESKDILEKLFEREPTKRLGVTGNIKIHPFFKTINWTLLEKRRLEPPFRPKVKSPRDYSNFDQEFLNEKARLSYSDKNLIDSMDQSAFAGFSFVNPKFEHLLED

## CC(C)CC(C/C=C1\CC(CO)(COC(=O)C(C)(C)C)OC1=O)CC(C)C (stereo not shown) [AJH-863, reference compound]
PKC-δ
  EC50: 2.32 µM
PKC-η
  EC50: 1.89 µM
PKC-θ
  EC50: 1.2 µM
PKC-α [1]
  EC50: > 50 µM
PKC δ and ε over α and β
  potency as PKC agonist: low nanomolar potency
  selectivity for δ and ε over α and β: approximately 10 fold
PKC-ε
  EC50: 0.505 µM
PKC-β1 [2]
  EC50: 1.3 µM
PKC-β2 [3]
  EC50: 1.06 µM
PKC-γ
  EC50: 19.4 µM

## CC(=O)O[C@@]12C[C@@H](C)[C@@]3(O)[C@@H](C=C(CO)C[C@]4(O)C(=O)C(C)=C[C@@H]34)[C@@H]1C2(C)C [Prostratin, prostratin, reference compound]
[4]
  EC50: 2.5 µM
CD69 on CD4+ T cells
  EC50: 0.28 µM
platelet-rich plasma
  platelet aggregation: stimulated platelet aggregation
PBMCs; 625 nM
  GM-CSF in PBMC culture supernatant: 35 pg/mL
  IFN-γ in PBMC culture supernatant: 255 pg/mL
  IL-1b in PBMC culture supernatant: 57 pg/mL
  IL-2 in PBMC culture supernatant: 22 pg/mL
  IL-4 in PBMC culture supernatant: 0.7 pg/mL
  IL-6 in PBMC culture supernatant: 40 pg/mL
  IL-8 in PBMC culture supernatant: 40,698 pg/mL
  IL-10 in PBMC culture supernatant: 4 pg/mL
  IL-12p70 in PBMC culture supernatant: 10 pg/mL
  TNF-α in PBMC culture supernatant: 634 pg/mL
PBMCs; 2500 nM
  GM-CSF in PBMC culture supernatant: 68 pg/mL
  IFN-γ in PBMC culture supernatant: 292 pg/mL
  IL-1b in PBMC culture supernatant: 108 pg/mL
  IL-2 in PBMC culture supernatant: 32 pg/mL
  IL-4 in PBMC culture supernatant: 1.1 pg/mL
  IL-6 in PBMC culture supernatant: 78 pg/mL
  IL-8 in PBMC culture supernatant: 45,930 pg/mL
  IL-10 in PBMC culture supernatant: 4.6 pg/mL
  IL-12p70 in PBMC culture supernatant: 12 pg/mL
  TNF-α in PBMC culture supernatant: 1489 pg/mL

## CCCCCC(=O)O[C@H]1C(C)=C[C@]23C(=O)[C@@H](C=C(CO)[C@@H](O)[C@]12O)[C@H]1[C@@H](C[C@H]3C)C1(C)C [Ingenol B, reference compound]
[5]
  CD62P EC50/CD69 EC50 ratio Geomean: 1.8

## Cn1c2ccccc2c2c3c(c4c5ccccc5n(CCC#N)c4c21)CNC3=O [Gӧ-6976]
PKC-β1 [6]
  IC50: 0.469 µM
PKC-β2 [7]
  IC50: 0.182 µM
PKC-α [8]
  IC50: 0.101 µM
[9]
  free in cell culture media: 34%
[10]
  estimated effect on novel PKC isoforms: without impacting novel PKC isoforms
  estimated inhibition of classical isoform activity: 75%–95%
